# Data from US20260007613A1, “LONG-ACTING LOW-TOXICITY NOVEL CATIONIC LIPID COMPOUNDS AND COMPOSITION THEREOF” (BEIJING YOUCAREKECHUANG PHARMACEUTICAL TECHNOLOGY CO., LTD., priority 2023, published 2026).
# Values joined by “and” are separate entries in the source; they are usually repeats but may differ in a detail not shown here. Identical values can stand only once.
# Legend:
# 293T cells [1] = test: Fluorescent detection of Fluc-mRNA (cell transfection efficiency of LNP formulations); type: cell-based
# Outline: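 293T cells were seeded at 10,000/well and cultured overnight, then given LNP carrying […] Fluc-mRNA (cationic:neutral:structured:polymer-conjugated lipid 49:10:39.5:1.5 molar) for 24 h. Luminescence was developed with […] and imaged on IVIS.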
# female BALB/C mice = test: Live imaging in mice: protein expression of Fluc-mRNA delivered by LNP formulations; type: in vivo; settings: for average radiation intensity, times that of ALC-0315: comparator ALC-0315; for average radiation intensity, times that of HHMA: comparator HHMA; for average radiation intensity, times that of SM-102: comparator SM-102; for expression of mRNA in mice, times that of YK-302: comparator YK-302; for expression amount, times that of YK-309: comparator YK-309; for expression amount, times that of YK-313: comparator YK-313; for expression amount, times that of YK-321: comparator YK-321; for average radiation intensity, times that of compound 21: comparator compound 21; for average radiation intensity, times that of compound 23: comparator compound 23
# Outline: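 Female BALB/C mice (4-6 weeks, 17-19 g) received LNP-formulated Fluc-mRNA […] intramuscularly. At 6 h, 24 h, 48 h and 7 d, luciferase substrate given intraperitoneally, and after 5 min average radiance measured by IVIS whole-body imaging.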
# [2] = Particle size and polydispersity index (PDI) of lipid nanoparticles by dynamic light scattering; type: physicochemical; settings: LNP formulation prepared from the cationic lipid, 25° C.
# Procedure: The particle size and polydispersity index (PDI) were determined by dynamic light scattering using Malvern laser particle size analyzer.
# 10 μL of the liposome solution was weighed, diluted to 1 mL with RNase-free deionized water, and added to the sample pool. Each sample was measured in triplicate. The measurement conditions were: […] scattering angle, and 25° C.
# 293T cells [3] = test: Cell survival rate determination (CCK-8); type: cell-based
# Outline: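 293T cells plated at 10,000/well (96-well), adhered overnight, then exposed 24 h to Fluc-mRNA LNP (cationic:neutral:structured:PEG-lipid 49:10:39.5:1.5) or Lipofectamine 3000. Viability by CCK-8, 1 h incubation, absorbance at 450 nm.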
smiles,measurement,setting,value
"CCCCCCCCC(CCCCCCCC)COC(=O)CCCCCN(CCCCCC(=O)OCC(CCCCCCCC)CCCCCCCC)C[C@H](O)CN(CC)CCO [YK-312, (S)-bis(2-octyldecyl)-6,6′-((2-hydroxy-3-((2-hydroxyethyl)(ethyl)amino)propyl)azanediyl)dihexanoate]",Relative light unit (RLU),"293T cells [1]; LNP formulation of Fluc-mRNA, 96-well plate, 24 hours",20148450 RLU
same,Multiples (YK-305),293T cells [1]; RLU of YK-305 / RLU of the lipid of the line,1.36
same,Multiples (YK-310),293T cells [1]; RLU of YK-310 / RLU of the lipid of the line,1.28
same,Multiples (YK-312),293T cells [1]; RLU of YK-312 / RLU of the lipid of the line,1.00
same,Multiples (YK-318),"293T cells [1]; RLU of YK-318 / RLU of the lipid of the line, Tables 5, 7, 11",0.56
same,Multiples (YK-319),"293T cells [1]; RLU of YK-319 / RLU of the lipid of the line, Tables 5, 7, 11",1.21
same,Ratio relative to SM-102,"293T cells [1]; RLU of the lipid / RLU of SM-102, times that of SM-102",12.56
same,"cell transfection efficiency, times that of ALC-0315",293T cells [1]; comparator ALC-0315,9.91 times
same,"cell transfection efficiency, times that of HHMA",293T cells [1]; comparator HHMA,10.04 times
same,"cell transfection efficiency, times that of Lipofectamine 3000",293T cells [1]; comparator Lipofectamine 3000,16.99 times
same,"cell transfection efficiency, times that of YK-009",293T cells [1]; comparator YK-009,3.94 times
same,"cell transfection efficiency, times that of YK-301",293T cells [1]; comparator YK-301,23.92 times
same,"cell transfection efficiency, times that of YK-302",293T cells [1]; comparator YK-302,725.34 times
same,"cell transfection efficiency, times that of YK-303",293T cells [1]; comparator YK-303,32.17 times
same,"cell transfection efficiency, times that of YK-304",293T cells [1]; comparator YK-304,~900 times and 974.01 times
same,"cell transfection efficiency, times that of YK-306",293T cells [1]; comparator YK-306,9.17 times
same,"cell transfection efficiency, times that of YK-307",293T cells [1]; comparator YK-307,4.42 times
same,"cell transfection efficiency, times that of YK-308",293T cells [1]; comparator YK-308,4.00 times
same,"cell transfection efficiency, times that of YK-309",293T cells [1]; comparator YK-309,~160 times and 160.71 times
same,"cell transfection efficiency, times that of YK-311",293T cells [1]; comparator YK-311,10.26 times
same,"cell transfection efficiency, times that of YK-313",293T cells [1]; comparator YK-313,23.25 times
same,"cell transfection efficiency, times that of YK-314",293T cells [1]; comparator YK-314,36.81 times
same,"cell transfection efficiency, times that of YK-315",293T cells [1]; comparator YK-315,12.69 times
same,"cell transfection efficiency, times that of YK-316",293T cells [1]; comparator YK-316,4.19 times
same,"cell transfection efficiency, times that of YK-317",293T cells [1]; comparator YK-317,5.59 times
same,"cell transfection efficiency, times that of YK-320",293T cells [1]; comparator YK-320,7.45 times
same,"cell transfection efficiency, times that of YK-321",293T cells [1]; comparator YK-321,14.36 times
same,"cell transfection efficiency, times that of compound 21",293T cells [1]; comparator compound 21,14.07 times
same,"cell transfection efficiency, times that of compound 23",293T cells [1]; comparator compound 23,14.86 times
same,"average radiation intensity, times that of ALC-0315",female BALB/C mice; 6 h,9.27 times
same,"average radiation intensity, times that of HHMA",female BALB/C mice; 6 h,12.30 times
same,"average radiation intensity, times that of SM-102",female BALB/C mice; 6 h,11.42 times
same,"expression of mRNA in mice, times that of YK-302",female BALB/C mice; 6 h,549.37 times
same,"expression amount, times that of YK-309",female BALB/C mice; 6 h,121.95 times
same,"expression amount, times that of YK-313",female BALB/C mice; 6 h,18.11 times
same,"expression amount, times that of YK-321",female BALB/C mice; 6 h,15.54 times
same,"average radiation intensity, times that of compound 21",female BALB/C mice; 6 h,13.12 times
same,"average radiation intensity, times that of compound 23",female BALB/C mice; 6 h,13.59 times
same,average radiation intensity,female BALB/C mice; 6 h after intramuscular injection,8009850
same,"average radiation intensity, times that of ALC-0315",female BALB/C mice; 24 h,11.96 times
same,"average radiation intensity, times that of HHMA",female BALB/C mice; 24 h,19.00 times
same,"average radiation intensity, times that of SM-102",female BALB/C mice; 24 h,18.91 times
same,"expression of mRNA in mice, times that of YK-302",female BALB/C mice; 24 h,575.97 times
same,"expression amount, times that of YK-309",female BALB/C mice; 24 h,135.46 times
same,"expression amount, times that of YK-313",female BALB/C mice; 24 h,21.82 times
same,"expression amount, times that of YK-321",female BALB/C mice; 24 h,22.51 times
same,"average radiation intensity, times that of compound 21",female BALB/C mice; 24 h,20.74 times
same,"average radiation intensity, times that of compound 23",female BALB/C mice; 24 h,21.80 times
same,average radiation intensity,female BALB/C mice; 24 h after intramuscular injection,2278520
same,"average radiation intensity, times that of ALC-0315",female BALB/C mice; 48 h,20.43 times
same,"average radiation intensity, times that of HHMA",female BALB/C mice; 48 h,24.98 times
same,"average radiation intensity, times that of SM-102",female BALB/C mice; 48 h,24.98 times
same,"expression of mRNA in mice, times that of YK-302",female BALB/C mice; 48 h,793.37 times
same,"expression amount, times that of YK-309",female BALB/C mice; 48 h,124.13 times
same,"expression amount, times that of YK-313",female BALB/C mice; 48 h,31.82 times
same,"expression amount, times that of YK-321",female BALB/C mice; 48 h,22.24 times
same,"average radiation intensity, times that of compound 21",female BALB/C mice; 48 h,26.25 times
same,"average radiation intensity, times that of compound 23",female BALB/C mice; 48 h,24.55 times
same,average radiation intensity,female BALB/C mice; 48 h after intramuscular injection,813200
same,"average radiation intensity, times that of ALC-0315",female BALB/C mice; 7 d,14.97 times
same,"average radiation intensity, times that of HHMA",female BALB/C mice; 7 d,17.97 times
same,"average radiation intensity, times that of SM-102",female BALB/C mice; 7 d,15.93 times
same,"expression of mRNA in mice, times that of YK-302",female BALB/C mice; 7 d,274.74 times
same,"expression amount, times that of YK-309",female BALB/C mice; 7 d,84.00 times
same,"expression amount, times that of YK-313",female BALB/C mice; 7 d,32.61 times
same,"expression amount, times that of YK-321",female BALB/C mice; 7 d,16.02 times
same,"average radiation intensity, times that of compound 21",female BALB/C mice; 7 d,16.37 times
same,"average radiation intensity, times that of compound 23",female BALB/C mice; 7 d,16.91 times
same,average radiation intensity,female BALB/C mice; 7 d after intramuscular injection,105500
same,PDI (%),[2],33.4%
same,Particle size (nm),[2],184 nm
same,Cell survival rate (%),"293T cells [3]; LNP formulation of Fluc-mRNA, 24 hours, CCK-8",76.96%
same,cell survival rate higher than ALC-0315,"293T cells [3]; difference of survival rates, comparator ALC-0315",25.93%
same,cell survival rate higher than HHMA,"293T cells [3]; difference of survival rates, comparator HHMA",10.49%
same,cell survival rate higher than Lipofectamine 3000,"293T cells [3]; difference of survival rates, comparator Lipofectamine 3000",51.95%
same,cell survival rate higher than SM-102,"293T cells [3]; difference of survival rates, comparator SM-102",7.51%
same,cell survival rate higher than YK-301,"293T cells [3]; difference of survival rates, comparator YK-301",24.00%
same,cell survival rate higher than YK-302,"293T cells [3]; difference of survival rates, comparator YK-302",60.53%
same,cell survival rate higher than YK-303,"293T cells [3]; difference of survival rates, comparator YK-303",13.64%
same,cell survival rate higher than YK-304,"293T cells [3]; difference of survival rates, comparator YK-304",42.80%
same,cell survival rate higher than YK-306,"293T cells [3]; difference of survival rates, comparator YK-306",34.77%
same,cell survival rate higher than YK-307,"293T cells [3]; difference of survival rates, comparator YK-307",15.82%
same,cell survival rate higher than YK-308,"293T cells [3]; difference of survival rates, comparator YK-308",5.97%
same,cell survival rate higher than YK-309,"293T cells [3]; difference of survival rates, comparator YK-309",45.35%
same,cell survival rate higher than YK-311,"293T cells [3]; difference of survival rates, comparator YK-311",6.90%
same,cell survival rate higher than YK-313,"293T cells [3]; difference of survival rates, comparator YK-313",8.03%
same,cell survival rate higher than YK-314,"293T cells [3]; difference of survival rates, comparator YK-314",9.08%
same,cell survival rate higher than YK-315,"293T cells [3]; difference of survival rates, comparator YK-315",5.68%
same,cell survival rate higher than YK-316,"293T cells [3]; difference of survival rates, comparator YK-316",6.43%
same,cell survival rate higher than YK-317,"293T cells [3]; difference of survival rates, comparator YK-317",17.78%
same,cell survival rate higher than YK-320,"293T cells [3]; difference of survival rates, comparator YK-320",5.89%
same,cell survival rate higher than YK-321,"293T cells [3]; difference of survival rates, comparator YK-321",4.62%
same,cell survival rate higher than compound 21,"293T cells [3]; difference of survival rates, comparator compound 21",6.75%
same,cell survival rate higher than compound 23,"293T cells [3]; difference of survival rates, comparator compound 23",5.46%
